According to US20250304535A1, “KAT6 Inhibitors” (BeiGene Switzerland GmbH, priority 2024, published 2025):

Experiments:
[1] = biological target: Recombinant human KAT6B protein (657-1069) (Homo sapiens (Human), UniProt Q8WYB5); assay: KAT6B biochemical TR-FRET assay; conditions: histone H4 peptide 1000 nM, AcCoA 100 nM, enzyme 5 nM
Procedure: Enzymatic reactions of KAT6A and KAT6B were performed using Fluorescence Resonance Energy Transfer (TR-FRET) assay, which measures acetylation of a synthetic, biotinylated histone-H4 peptide by the KAT6A and KAT6B enzymes. Recombinant human KAT6A protein (497-780) were expressed in BL21 cell using an E. coli expression system. Recombinant human KAT6B protein (657-1069) was expressed in sf9 cell using a baculovirus expression system. Histone H4 peptide (SEQ ID NO: 1—[…]-GGK-Biotin), which was used as substrate, was synthesized by GL Biochem, Shanghai, China. Acetyl coenzyme A was purchased from Sigma-Aldrich (#A-2056).
(§1) Testing for the inhibition activities of various compounds disclosed herein was carried out at room temperature in assay buffer containing 100 mM Tris/HCl Ph7.8, 15 mM NaCl, 0.01% chicken egg white albumin, 1 mM DTT and 0.01% Tween-20. Compounds in DMSO were dispensed into wells of a black, 384-well plate (Corning 4514) using ECHO555 (Beckman). The final concentration ranges of the test compounds were 0.0625-1,000 nM, 0.625-10,000 nM, or 0.313-5,000 nM. Five μL of KAT6A or KAT6B enzyme solution were added to wells, and the plate was incubated for 1 hour at room temperature (rt). After incubation for 1 hour at rt, 5 μL H4 and AcCoA substrate solutions were added to the wells to initiate reaction, and the plate was incubated. After 2 hours reaction, 5 μL detection reagent were added to the wells, and the plate was incubated for 2 hours. After two hours incubation, detection reagent containing 5 nM Anti-histone H4 antibody (ABCAM #ab177790), 100 μM formic acid (sigma #06473-100ML), 0.1 test/μL streptavidin-XL665 (PerkinElmer #610SAXLG), 0.05 test/μL PAb anti-rabbit IgG-Eu (PerkinElmer μ61PARKLA) was added to the wells. TR-FRET was measured on a microplate reader (PHERAstar FSX, BMG labtech). The IC50s were calculated based on inhibition of enzyme activity in the presence of increasing concentrations of test compounds, and the results are shown in Table 6. In Table 6, I≤5 nM, 5 nM<II≤50 nM.

[2] = biological target: Recombinant human KAT6A protein (497-780) (Homo sapiens (Human), UniProt Q92794); assay: KAT6A biochemical TR-FRET assay; conditions: histone H4 peptide 2000 nM, AcCoA 300 nM, enzyme 5 nM
Sequence of Recombinant human KAT6A protein (497-780) (Q92794 497-780): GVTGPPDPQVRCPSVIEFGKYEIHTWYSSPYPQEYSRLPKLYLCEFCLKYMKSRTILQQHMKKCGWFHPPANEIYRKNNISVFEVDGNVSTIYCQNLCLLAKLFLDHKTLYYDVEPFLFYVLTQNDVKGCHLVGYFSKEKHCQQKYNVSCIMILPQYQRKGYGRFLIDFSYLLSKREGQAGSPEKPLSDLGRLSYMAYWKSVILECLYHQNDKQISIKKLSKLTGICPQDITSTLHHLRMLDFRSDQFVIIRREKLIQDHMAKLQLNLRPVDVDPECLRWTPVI
Procedure: Enzymatic reactions of KAT6A and KAT6B were performed using Fluorescence Resonance Energy Transfer (TR-FRET) assay, which measures acetylation of a synthetic, biotinylated histone-H4 peptide by the KAT6A and KAT6B enzymes. Recombinant human KAT6A protein (497-780) were expressed in BL21 cell using an E. coli expression system. Recombinant human KAT6B protein (657-1069) was expressed in sf9 cell using a baculovirus expression system. […] Acetyl coenzyme A was purchased from Sigma-Aldrich (#A-2056).
as §1, with “The IC50s were calculated based on inhibition of enzyme activity in the presence of increasing concentrations of test compounds, and the results are shown in Table 6.” left out

[3] = system: histone H3K23 acetylation in U-2 OS cells; assay: Histone H3 lysine 23 acetylation assay in U-2 OS cells (high content analysis); type: cell-based; conditions: Homo sapiens, U2OS, 24 hrs exposure, H3K23ac level
Procedure: Assay B: Histone H3 lysine 23 Acetylation Assay
Compounds were tested for their capacity to suppress the histone H3K23 acetylation in the following high content analysis assay.
The cell line U-2 OS (ATCC HTB-96) was seeded at a density of 2000 cells per well in black 384 well cell culture/imaging microplates in 45 μl McCoy's 5A medium with […]. After overnight incubation in 37° C., 5% CO2 incubator, cells were then treated with a 9-point dilution series of compounds and a blank control group with medium containing 0.1% DMSO.
Following a 24 hrs exposure to the compounds, the cells were fixed with 4% immunohistochemical fixative for 20 mins at room temperature, washed with DPBS with 2% fetal bovine serum, and permed with Perm Buffer III for 30 min on ice, washed with DPBS with 2% fetal bovine serum. Then the cells were blocked with Odyssey blocking buffer containing 0.1% Tween 20. 20 ul Anti-Histone H3 (acetyl K23) antibody (Abcam, ab177275) in odyssey blocking buffer containing 0.1% Tween20 was added and incubated overnight at 4° C. After incubation, the cells were washed for 3 times and a secondary antibody Anti-rabbit IgG (H+L), F(ab′)2 Fragment (Alexa Fluor® 647 Conjugate) (CST, 4414S) were added into cells for one hour. The cells were washed and 1 ug/ml DAPI (Thermo, 62248) were added for 10 min. Then cells were washed and read on the PerkinElmer Operetta CLS high content analysis system. The nuclei were identified by DAPI and H3K23ac level was calculated from the Alexa Fluor 647 intensity in the nuclei. Inhibition rate of H3K23ac was calculated as the mean intensity of cells per well relative to blank controls on the same plate.

Sequence of Recombinant human KAT6B protein (657-1069) (Q8WYB5 657-1069): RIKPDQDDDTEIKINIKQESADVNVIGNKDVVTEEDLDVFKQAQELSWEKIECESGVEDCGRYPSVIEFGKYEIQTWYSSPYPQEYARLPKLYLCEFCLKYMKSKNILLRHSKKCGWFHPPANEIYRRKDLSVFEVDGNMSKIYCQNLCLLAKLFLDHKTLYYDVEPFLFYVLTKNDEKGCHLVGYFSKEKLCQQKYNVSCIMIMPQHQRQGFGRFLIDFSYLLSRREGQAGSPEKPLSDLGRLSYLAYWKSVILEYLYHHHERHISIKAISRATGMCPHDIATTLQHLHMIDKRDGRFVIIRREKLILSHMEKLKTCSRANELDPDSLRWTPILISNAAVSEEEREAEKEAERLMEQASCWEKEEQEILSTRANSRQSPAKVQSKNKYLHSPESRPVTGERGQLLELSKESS

SMILES	IC50 [1]	IC50 [2]	IC50 [3]
C=Cc1cc(C(=O)NS(=O)(=O)c2c(OC)ccc3c2OC(C)(C)C3)ccc1Cn1cccn1 [Example C44, 4-((1H-pyrazol-1-yl)methyl)-N-((6-methoxy-2,2-dimethyl-2,3-dihydrobenzofuran-7-yl)sulfonyl)-3-vinylbenzamide]	≤ 5 nM	≤ 5 nM	≤ 10 nM
CCc1nc(C(=O)NS(=O)(=O)c2c(OC)ccc3c2OCC3(C)C)ccc1Cn1cccn1 [Example C53, 5-((1H-pyrazol-1-yl)methyl)-6-ethyl-N-((6-methoxy-3,3-dimethyl-2,3-dihydrobenzofuran-7-yl)sulfonyl)picolinamide]	≤ 5 nM	≤ 5 nM	≤ 10 nM
COc1ccc(C(C)(C)C)nc1S(=O)(=O)NC(=O)c1ccc(Cn2cccn2)c(N2CCC2)c1 [Example C20, 4-((1H-pyrazol-1-yl)methyl)-3-(azetidin-1-yl)-N-((6-(tert-butyl)-3-methoxypyridin-2-yl)sulfonyl)benzamide]	≤ 5 nM	≤ 5 nM	≤ 10 nM
COc1ccc(C(C)(C)C)nc1S(=O)(=O)NC(=O)c1ccc(Cn2cccn2)c(OC)n1 [Example C41, 5-((1H-pyrazol-1-yl)methyl)-N-((6-(tert-butyl)-3-methoxypyridin-2-yl)sulfonyl)-6-methoxypicolinamide]	≤ 5 nM	≤ 5 nM	≤ 10 nM
COc1ccc(N2CC3CCC(C2)O3)cc1S(=O)(=O)NC(=O)c1ccc(Cn2cccn2)c(OC)n1 [Example C62, 5-((1H-pyrazol-1-yl)methyl)-N-((5-(8-oxa-3-azabicyclo[3.2.1]octan-3-yl)-2-methoxyphenyl)sulfonyl)-6-methoxy-picolinamide]	≤ 5 nM	≤ 5 nM	≤ 10 nM
COc1cccc(OC)c1S(=O)(=O)NC(=O)c1ccc(Cn2cccn2)c(OC)n1 [Example C69, 5-((1H-pyrazol-1-yl)methyl)-N-((2,6-dimethoxyphenyl)sulfonyl)-6-methoxy-picolinamide]	≤ 5 nM	–	≤ 10 nM
C=Cc1cc(C(=O)NS(=O)(=O)c2cc(C(C)(C)C)ccc2OC)ccc1Cn1cccn1 [Example C4, 4-((1H-pyrazol-1-yl)methyl)-N-((5-(tert-butyl)-2-methoxyphenyl)sulfonyl)-3-vinylbenzamide]	≤ 5 nM	≤ 5 nM	≤ 10 nM
COc1ccc(C(C)(C)C)nc1S(=O)(=O)NC(=O)c1ccc(Cn2cccn2)c(C2CC2)n1 [Example C48, 5-((1H-pyrazol-1-yl)methyl)-N-((6-(tert-butyl)-3-methoxypyridin-2-yl)sulfonyl)-6-cyclopropylpicolinamide]	≤ 5 nM	≤ 5 nM	≤ 10 nM
CCc1cc(C(=O)NS(=O)(=O)c2nc(C(C)(C)C)ccc2OC)ccc1Cn1cccn1 [Example C23, 4-((1H-pyrazol-1-yl)methyl)-N-((6-(tert-butyl)-3-methoxypyridin-2-yl)sulfonyl)-3-ethylbenzamide]	≤ 5 nM	≤ 5 nM	≤ 10 nM
COc1ccc(C(C)(C)C)cc1S(=O)(=O)NC(=O)c1ccc(Cn2cccn2)c(I)c1 [Example C1, 4-((1H-pyrazol-1-yl)methyl)-N-((5-(tert-butyl)-2-methoxyphenyl)sulfonyl)-3-iodobenzamide]	≤ 5 nM	≤ 5 nM	≤ 10 nM
[2H]C([2H])([2H])Oc1nc(C(=O)NS(=O)(=O)c2c(OC)ccc3c2OC(C)(C)C3)ccc1Cn1cccn1 [Example C65, 5-((1H-pyrazol-1-yl)methyl)-6-(methoxy-d3)-N-((6-methoxy-2,2-dimethyl-2,3-dihydrobenzofuran-7-yl)sulfonyl) picolinamide]	≤ 5 nM	≤ 5 nM	≤ 10 nM
COc1ccc(C(C)(C)C)nc1S(=O)(=O)NC(=O)c1ccc(Cn2cccn2)c(F)c1 [Example C24, 4-((1H-pyrazol-1-yl)methyl)-N-((6-(tert-butyl)-3-methoxypyridin-2-yl)sulfonyl)-3-fluorobenzamide]	≤ 5 nM	≤ 5 nM	10 to 100 nM
CCc1cc(C(=O)NS(=O)(=O)c2cc(C(C)(C)C)ccc2OC)ccc1Cn1cccn1 [Example C6, 4-((1H-pyrazol-1-yl)methyl)-N-((5-(tert-butyl)-2-methoxyphenyl)sulfonyl)-3-ethylbenzamide]	≤ 5 nM	≤ 5 nM	≤ 10 nM
COc1cc(C(=O)NS(=O)(=O)c2nc(C(C)(C)C)ccc2OC)ccc1Cn1ccc(C)n1 [Example C33, N-((6-(tert-butyl)-3-methoxypyridin-2-yl)sulfonyl)-3-methoxy-4-((3-methyl-1H-pyrazol-1-yl)methyl)benzamide]	≤ 5 nM	≤ 5 nM	≤ 10 nM
C#Cc1cc(C(=O)NS(=O)(=O)c2cc3c(cc2OC)CCC3)ccc1Cn1cccn1 [Example C9, 4-((1H-pyrazol-1-yl)methyl)-3-ethynyl-N-((6-methoxy-2,3-dihydro-1H-inden-5-yl)sulfonyl)benzamide]	5 to 50 nM	5 to 50 nM	10 to 100 nM
COc1ccc(C(C)(C)C)nc1S(=O)(=O)NC(=O)c1ccc(Cn2cccn2)c(OC(F)F)c1 [Example C30, 4-((1H-pyrazol-1-yl)methyl)-N-((6-(tert-butyl)-3-methoxypyridin-2-yl)sulfonyl)-3-(difluoromethoxy)benzamide]	≤ 5 nM	≤ 5 nM	≤ 10 nM
COCc1cc(C(=O)NS(=O)(=O)c2cc(C(C)(C)C)ccc2OC)ccc1Cn1cccn1 [Example C12, 4-((1H-pyrazol-1-yl)methyl)-N-((5-(tert-butyl)-2-methoxyphenyl)sulfonyl)-3-(methoxymethyl)benzamide]	5 to 50 nM	5 to 50 nM	10 to 100 nM
COc1ccc(C(C)(C)C)cc1S(=O)(=O)NC(=O)c1ccc(Cn2cccn2)c(C)c1 [Example C3, 4-((1H-pyrazol-1-yl)methyl)-N-((5-(tert-butyl)-2-methoxyphenyl)sulfonyl)-3-methylbenzamide]	≤ 5 nM	≤ 5 nM	≤ 10 nM
